Experimental data reported in patent US20100267561A1, “HERBICIDAL PYRIDAZINONE DERIVATIVES” (priority 2007, published 2010).

Experiments:
Assay type in all cases: in vivo
[1] = test system: giant foxtail (Setaria faberi); experiment: Test A pre-/postemergence plant response
Outline: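 Seeds were planted in blended loam soil and sand, then treated preemergence by directed soil spray. At that time, emerged plants (one- to two-leaf, 2–10 cm) received postemergence applications of the same surfactant-containing formulation. Injury was assessed visually on a 0–100 scale after approximately 10 days.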

[2] = test system: common (oilseed) sunflower (Helianthus annuus); experiment: Test B pre-/postemergence plant response; details: Preemergence
Outline: (§1)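 Seeds were sown and sprayed preemergence, while plants at 2 to 18 cm (1- to 4-leaf stage) got postemergence sprays. Compounds were formulated in a non-phytotoxic solvent mixture with surfactant. After 13 to 15 days in a greenhouse, injury was rated visually against untreated controls, 0 (no effect) to 100 (complete control).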

[3] = test system: soybean (Glycine max); experiment: Test B pre-/postemergence plant response; details: Preemergence
Outline: as §1

[4] = test system: wheat (Triticum aestivum); experiment: Test B pre-/postemergence plant response; details: Preemergence; for Wheat plant response rating: scale 0 to 100
Outline: as §1

[5] = test system: blackgrass (Alopecurus myosuroides); experiment: Test B pre-/postemergence plant response; details: Preemergence
Outline: as §1

[6] = test system: velvetleaf (Abutilon theophrasti); experiment: Test B pre-/postemergence plant response; details: Preemergence; for Velvetleaf plant response rating: scale 0 to 100
Outline: as §1

[7] = test system: downy bromegrass (Bromus tectorum); experiment: Test B pre-/postemergence plant response; details: Preemergence
Outline: as §1

[8] = test system: giant foxtail (Setaria faberii); experiment: Test B pre-/postemergence plant response; details: Preemergence
Outline: as §1

[9] = test system: bermudagrass (Cynodon dactylon); experiment: Test B pre-/postemergence plant response; details: Preemergence
Outline: as §1

[10] = test system: goosegrass (Eleusine indica); experiment: Test B pre-/postemergence plant response; details: Preemergence
Outline: as §1

[11] = test system: pigweed (Amaranthus retroflexus); experiment: Test B pre-/postemergence plant response; details: Preemergence
Outline: as §1

[12] = test system: johnsongrass (Sorghum halepense); experiment: Test B pre-/postemergence plant response; details: Preemergence
Outline: as §1

[13] = 31 g ai/ha, scale 0 to 100 (0 no effect, 100 complete control)
[14] = 62 g ai/ha, 0 to 100 scale, 0 no effect, 100 complete control
[15] = 16 g ai/ha, scale 0 to 100 (0 no effect, 100 complete control)
[16] = 31 g ai/ha, 0 to 100 scale, 0 no effect, 100 complete control

`Cc1cc(-c2ccc(Cl)cc2)nn1-c1c(OS(=O)(=O)c2ccccc2[N+](=O)[O-])cnn(C)c1=O` [Compound 51] was tested, and the “Plant response rating, Foxtail, Giant” value ([1]; Postemergence, 31 g ai/ha, 0 to 100 scale (0 no effect, 100 complete control)) was 20, the “Plant response rating, Foxtail, Giant” value ([1]; Postemergence, 125 g ai/ha, 0 to 100 scale, 0 no effect, 100 complete control) was 70 and the “Plant response rating, Foxtail, Giant” value ([1]; Preemergence, 31 g ai/ha, 0 to 100 scale, 0 is no effect, 100 is complete control) was 90. For the same compound, the “Plant response rating, Foxtail, Giant” value ([1]; Preemergence, 125 g ai/ha, 0 to 100 scale (0 no effect, 100 complete control)) was 100, the “Plant response rating, Sunflower” value [2, 13] was 0 and the “Plant response rating, Sunflower” value ([2]; 62 g ai/ha, scale 0 to 100) was 0. The “Sunflower plant response rating” value ([2]; 8 g ai/ha, scale 0 to 100) was 0, the “Sunflower plant response rating” value ([2]; 16 g ai/ha, scale 0 to 100) was 0 and the “Plant response rating, Soybean” value [3, 13] was 0. For the same compound, the “Plant response rating, Soybean” value ([3]; 62 g ai/ha, scale 0 to 100) was 0, the “Soybean plant response rating” value ([3]; 8 g ai/ha, scale 0 to 100) was 0 and the “Soybean plant response rating” value ([3]; 16 g ai/ha, scale 0 to 100) was 0. The “Plant response rating, Wheat” value [4, 13] was 10, the “Plant response rating, Wheat” value [4, 14] was 60 and the “Wheat plant response rating” value ([4]; 8 g ai/ha) was 0. For the same compound, the “Wheat plant response rating” value ([4]; 16 g ai/ha) was 0, the “Plant response rating, Blackgrass” value [5, 15] was 98 and the “Plant response rating, Blackgrass” value [5, 16] was 98. The “Plant response rating, Blackgrass” value ([5]; 62 g ai/ha, scale 0 to 100) was 100, the “Blackgrass plant response rating” value ([5]; 8 g ai/ha, scale 0 to 100) was 50 and the “Plant response rating, Velvetleaf” value [6, 13] was 0. For the same compound, the “Plant response rating, Velvetleaf” value [6, 14] was 0, the “Velvetleaf plant response rating” value ([6]; 8 g ai/ha) was 0 and the “Velvetleaf plant response rating” value ([6]; 16 g ai/ha) was 0. For the same compound, the “Plant response rating, Bromegrass, Downy” value [7, 15] was 0, the “Plant response rating, Bromegrass, Downy” value [7, 16] was 45 and the “Plant response rating, Bromegrass, Downy” value ([7]; 62 g ai/ha, scale 0 to 100) was 85. The “Bromegrass, Downy plant response rating” value ([7]; 8 g ai/ha, scale 0 to 100) was 0, the “Plant response rating, Foxtail, Giant” value [8, 16] was 100 and the “Plant response rating, Foxtail, Giant” value ([8]; 62 g ai/ha, scale 0 to 100) was 100. For the same compound, the “Foxtail, Giant plant response rating” value ([8]; 8 g ai/ha, scale 0 to 100) was 80, the “Foxtail, Giant plant response rating” value ([8]; 16 g ai/ha, scale 0 to 100) was 100 and the “Bermudagrass plant response rating” value ([9]; 8 g ai/ha, scale 0 to 100 (0 no effect, 100 complete control)) was 60. For the same compound, the “Plant response rating, Bermudagrass” value [9, 15] was 100, the “Plant response rating, Bermudagrass” value [9, 16] was 100 and the “Plant response rating, Bermudagrass” value ([9]; 62 g ai/ha, scale 0 to 100) was 100. The “Plant response rating, Goosegrass” value [10, 16] was 75, the “Plant response rating, Goosegrass” value ([10]; 62 g ai/ha, scale 0 to 100) was 90 and the “Goosegrass plant response rating” value ([10]; 8 g ai/ha, scale 0 to 100) was 0. For the same compound, the “Goosegrass plant response rating” value ([10]; 16 g ai/ha, scale 0 to 100) was 60, the “Plant response rating, Pigweed” value [11, 13] was 0 and the “Plant response rating, Pigweed” value ([11]; 62 g ai/ha, scale 0 to 100) was 0. The “Pigweed plant response rating” value ([11]; 8 g ai/ha, scale 0 to 100) was 0, the “Pigweed plant response rating” value ([11]; 16 g ai/ha, scale 0 to 100) was 0 and the “Plant response rating, Johnsongrass” value [12, 16] was 70. For the same compound, the “Plant response rating, Johnsongrass” value ([12]; 62 g ai/ha, scale 0 to 100) was 80 and the “Johnsongrass plant response rating” value ([12]; 16 g ai/ha, scale 0 to 100) was 50.
